Results on one molecule are retold here after paper PMC9143821, “Design and Synthesis of a Novel 4-aryl-N-(2-alkoxythieno [2,3-b]pyrazine-3-yl)-4-arylpiperazine-1-carboxamide DGG200064 Showed Therapeutic Effect on Colon Cancer through G2/M Arrest” (Pharmaceuticals, 2022).

One data set in a line: logP determination. It counts as physicochemical. The text has this: (§1) Table 4 Physicochemical Properties of the Lead Compounds 7c. | column: 7c
Another data set relates to FBXW7/c-Jun interaction. The experiment in a line: Immunoprecipitation, ubiquitination and FBXW7/c-Jun interaction. The data set is classed as cell-based, human. The text has this: To investigate whether the ubiquitination of c-Jun is suppressed through the inhibition of c-Jun and FBXW7 binding by DGG200064, c-Jun immunoprecipitation was done to observe protein–protein interaction (Figure 4). E3 ligase, such as FBXW7, binds the protein to the ubiquitin chain through covalent bonds and rapidly degrades the protein through 26S proteasome. When treated with MG132 as a proteasome inhibitor, the ubiquitination of c-Jun increased compared to both control HCT116 and DLD1 cells. In contrast, the c-Jun ubiquitination was inhibited by DGG200064. The binding between c-Jun and FBXW7 was reduced with DGG200064 treatment. The FBXW7 protein, also known as CDC4, is a component of the SCF complex ubiquitin ligase and is known as a modulator of several substrates including cyclin E, c-Myc, c-Jun, and Notch. To check the selectivity of DGG200064 towards FBXW7 substrates, the change of c-Jun, cyclin E, and c-Myc by DGG200064 was analyzed. […] Cyclin E immunoprecipitation was done to test whether the ubiquitination of cyclin E by FBXW7 is inhibited by DGG200064 in HCT116 (Figure S2b, Supplementary Materials). There were no changes in cyclin E ubiquitination with DGG200064 treatment.
To identified ubiquitination of c-Jun by DGG200064, HCT116 cells were treated with/without MG132 (10 μM) for 6h, DGG200064 (50 nM) for 18 h. The cell lysate was prepared using RIPA buffer for immunoprecipitation. Each lysate was mixed with antibodies (1 μg/mL) of c-Jun or MYC at 4 °C overnight in immunoprecipitation buffer containing 50 mM Tris-Cl,150 mM NaCl, 1 mM EDTA, 0.5% Triton X-100, pH 7.4, and reacted with 10 μL of protein A/G beads UltraLink Resin (50:50 resin: buffer slurry condition) (Peirce, #35133) for 2 h on RT for precipitation. After reaction and centrifugation at 3000 rpm for 3 min, the immunoprecipitated samples were washed with 500 μL of immunoprecipitation buffer by tapping and centrifuged. The washing was repeated five times before western blotting.

A further data set in a line: pKa determination. It counts as physicochemical.
Source text: as §1

The nature of data set [1]: Pharmacokinetics in ICR mice. It counts as in vivo. The conditions noted are these: mouse, plasma, 5 mg/kg.
The test system of data set [2] is HCT116 mouse tumor models. The experiment in a line: HCT116 xenograft mouse tumor model. The data set is classed as in vivo, nude BALB/c mice. The settings on record: 6 days/week, 21 days. As to the method: We tested the inhibition effect by DGG200064 in the HCT116 mouse tumor models (Figure 6a). Cultured HCT116 cells were injected subcutaneously near the scapulae of 6-week-old female nude BALB/c mice. Oral administration of DGG200064 (60, 120 mg/kg) began when tumors reached a volume of 100 mm^3 and proceeded for 6 days/week. […] Mice were then injected intraperitoneally with BrdU and anesthetized 2 h later. They were then perfused with PBS and killed. To identify the level of c-Jun by DGG200064, HCT116 tumors harvested from mice were fixed and analyzed by immunohistochemical staining for Hematoxylin and c-Jun. […]
Xenografts were initiated in female Bagg and Albino (BALB)/c nude mice (6–8 weeks old; n = 18). […] The size of the primary tumors was measured every 2–3 days using calipers. Tumor volume was calculated using the formula, v = (A × B2)/2, where […] is the short diameter (mm). […]
The isolated tumors issued were then stained with antibodies against BrdU (1:700), c-Jun (1:50). […] Endogenous peroxidase activity was blocked with hydrogen peroxide, and background staining was blocked with V block solution, the primary antibodies were detected with horseradish […] (HRP)-conjugated polymer and developed with diaminobenzidine (DAB). […] Positively stained nuclei were counted, and the differences between the groups were analyzed using Student’s t-test, p values ≤0.05 were considered significant.

With `COc1cc(OC)cc(N2CCN(C(=O)Nc3nc4sccc4nc3OC)CC2)c1` [Compound 7c, 4-(3,5-Dimethoxyphenyl)-N-(2-methoxythieno[2,3-b]pyrazin-3-yl)piperazine-1-carboxamide], in the data set “logP determination”, the lipophilicity (logP) (commonly the decadic logarithm of the partition coefficient of the neutral form, usually between octanol and water) was 2.63. For the same molecule, in the data set on FBXW7/c-Jun interaction (HCT116, cyclin E immunoprecipitation), the “cyclin E ubiquitination” value was “no changes”. For the same molecule, the “binding between c-Jun and FBXW7” value in the data set with FBXW7/c-Jun interaction (HCT116 and DLD1, 50 nM, 18 h, c-Jun immunoprecipitation) was “reduced”. Further, the c-Jun ubiquitination result with FBXW7/c-Jun interaction (HCT116 and DLD1, DGG200064 50 nM 18 h, MG132 10 μM 6 h) is “inhibited”. For the same molecule, the pKa (as a rule, the negative logarithm of the acid dissociation constant) in the data set “pKa determination” (first of two values) was determined as 2.39. In addition, the pKa in “pKa determination” (second of two values) was 11.6. Also, in data set [1] (IV), the area under the curve AUC(0-inf) (commonly total exposure, with the tail of the curve extrapolated) worked out at 16600 ng·h/mL; the area under the curve AUC(0-t) (commonly exposure summed from dosing to a finite time, without extrapolation to infinity) came out at 16400 ng·h/mL; the clearance (as a rule, a measure of how efficiently the substance is removed, as volume per time) was 5.08 mL/min/kg; the half-life (as a rule, the time in which the quantity being followed falls by half) was 2.98 h. In addition, in data set [1] (PO), the AUC(0-inf) turned out to be 2340 ng·h/mL, the exposure AUC(0-t) turned out to be 2260 ng·h/mL, the Cmax (usually the highest concentration seen after dosing) stood at 798 ng/mL and the time of peak concentration (Tmax) (usually the time from dosing to the highest level) amounted to 0.667 h. Besides, in data set [1] (PO), the bioavailability (commonly the share of a dose that reaches the circulation, judged against a reference dose that is usually intravenous) was found to be 13.8% and the half-life is 5.2 h. For the same molecule, the “c-Jun expression increase in tumors compared to the control group (IHC)” value in data set [2] (60 mg/kg oral) is given as 1.2 fold. Also, the “c-Jun expression increase in tumors compared to the control group (IHC)” value in data set [2] (120 mg/kg oral) worked out at 2 fold.
